Measured values reported in patent US20100249172A1, “9-CHLORO NOSCAPINE AND ITS USE IN TREATING CANCERS, INCLUDING DRUG-RESISTANT CANCERS” (EMORY UNIVERSITY, priority 2007, published 2010).

Columns and labels:
caspase-3 = test: Apoptotic mechanism in cancer cells; format: cell-based
[1] = system: normal human fibroblast cells; test: Cell cycle progression in normal cells; format: cell-based
CEM cells = test: MTS cell proliferation assay; format: cell-based, human
Method: Suspension cells (CEM) were seeded into 96-well plates at a density of 5×10^3 cells per well and were treated with increasing concentrations of all halogenated analogs for 72 hours. Measurement of cell proliferation was performed colorimetrically by 3-(4,5-dimethylthiazol-2-yl)-5-(3-carboxymethoxyphenyl)-2-(4-sulphophenyl)-2H-tetrazolium, inner salt (MTS) assay, using the CellTiter96 AQueous One Solution Reagent (Promega, Madison, Wis.). Cells were exposed to MTS for 3 hours and absorbance was measured using a microplate reader (Molecular Devices, Sunnyvale, Calif.) at an optical density (OD) of 490 nm. The percentage of cell survival as a function of drug concentration for both the assays was then plotted to determine the IC50 value, which stands for the drug concentration needed to prevent cell proliferation by 50%.
Having identified tubulin as the target molecule, the pharmacological study was extended at the cellular level to determine if all the halogenated analogs affected cancer cell proliferation. As a preliminary screen, 9-chloro-nos and noscapine were evaluated for their antiproliferative activity in three human cancer cell lines; human breast adenocarcinoma cells (estrogen- and progesterone-receptor positive, MCF-7 and estrogen- and progesterone-receptor negative, MDA-MB-231) and human lymphoblastoid cells CEM. […]

COc1ccc2c(c1OC)C(=O)O[C@@H]2[C@H]1c2c(c(Cl)c3c(c2OC)OCO3)CCN1C [9-Cl-nos, (S)-3-((R)-9-chloro-4-methoxy-6-methyl-5,6,7,8-tetrahydro-[1,3]dioxolo[4,5-g]isoquinolin-5-yl)-6,7-dimethoxyisobenzofuran-1(3H)-one]
caspase-3 activation (caspase-3): associated with activation of the key executioner cysteine protease, caspase-3 | effect on cell cycle of normal cells [1]: without affecting the cell cycle | inhibition of cell proliferation (in words) (CEM cells): effectively inhibits cell proliferation | IC50 (CEM cells; Homo sapiens, CCRF-CEM, 72 hours): 1200 ± 300 nM
